Data on 8 compounds can be found in patent publication EP0191399A2, “Benz[a]anthraquinone compounds, a microbial process for their preparation and their use as medicaments” (priority 1985, dated 1986).

Values after ≈ are worked out from the molar mass of the structure shown. Read-outs that look alike come from different tables or passages of the source.

Data set [1] relates to Adriamycin-sensitive P388 leukemia cells (P388/S). The experiment in a line: Growth inhibition of cultured Adriamycin-sensitive P388 leukemia cells. Type of data set: cell-based. Particulars: Mus musculus, read-out: IC50 (μg/ml) P388/S. The text has this:
The substance MH190 of the present invention are capable of inhibiting the growth of cultured Adriamycin-sensitive P388 leukemia cells (P388/S) and Adriamycin-resistant P388 leukemia cells (P388/ADR) in very low concentrations.

The test system of data set [2] is Adriamycin-resistant P388 leukemia cells (P388/ADR). The experiment in a line: Growth inhibition of cultured Adriamycin-resistant (multi-drug resistant) P388 leukemia cells. The conditions noted are these: for IC50: Mus musculus, read-out: IC50 (μg/ml) P388/ADR; for Ratio (P388/ADR to P388/S): ratio of IC50 P388/ADR to IC50 P388/S. The data set is classed as cell-based.

Data set [3] is described as follows: Stability (physicochemical properties, Table 5). Particulars: light, acid, alkali, silica gel.
The nature of data set [4]: Solubility in solvents (physicochemical properties, Table 5). Particulars: for Solubility (1) Soluble: solvents in which the substance is soluble; for Solubility (2) Sparingly soluble: solvents in which the substance is sparingly soluble.
The next data set concerns L1210 leukemia cells. Description: Anti-tumor activity against intraperitoneally transplanted L1210 leukemia in mice (life prolongation). The data set is classed as in vivo, CDF1 mice. The conditions noted are these: for Percentage life prolongation: intraperitoneal for 10 days, survival of saline control taken as 100. On the procedure:
L1210 leukemia cells (1 x 10^5 per animal) were transplanted intraperitoneally into CDF1 mice. Immediately after the transplantation, a solution of MH190 Y2 was injected intraperitoneally for 10 days in a dose of […]. The percentage life prolongation of each of the treated mice was checked and the results are shown below, with the number of days of survival of control mice to which physiological saline had been administered being taken as 100.

Data set [5] in a line: Acute toxicity (LD50), single intraperitoneal injection. The conditions noted are these: mouse, in vivo, ip; single intraperitoneal injection into mice.

As to `COc1cccc2c1C(=O)c1c(O)c3c(c(O)c1C2=O)C[C@@](O)(C(=O)CO)C[C@@H]3O[C@H]1C[C@H](N)[C@H](O)[C@H](C)O1` [Adriamycin, reference compound], the IC50 in data set [1] (P388/S) is 0.012 µg/mL (≈ 0.0221 µM); in data set [2] (cultured P388/ADR cells) it was 0.38 µg/mL (≈ 0.699 µM). Also, the “Ratio (P388/ADR to P388/S)” value in data set [2] turned out to be 31.7.

Regarding `CC1OC(OC2CCC(OC3(C)CC(=O)C4(O)C5=C(C=CC4(O)C3)C(=O)c3c(ccc(C4CC(O)C(OC6C=CC(=O)C(C)O6)C(C)O4)c3O)C5=O)OC2C)C=CC1=O` (centres unmarked) [MH190 Y1, Saquayamycin A], the results for the IC50 in data set [1] (cultured P388/S cells) and in data set [2] (cultured P388/ADR cells) were 0.067 µg/mL (≈ 0.0816 µM) and 0.056 µg/mL (≈ 0.0682 µM), respectively. Further, the “Ratio (P388/ADR to P388/S)” value in data set [2] is given as 0.84. The Stability entry in data set [3] was “instable against light, acid and alkali changed to MH190 Y2 on silica gel”. In data set [4], the “Solubility (1) Soluble” value is “CHCl3, ethyl acetate, butyl acetate, methanol, acetonitrile, acetone, dimethyl sulfoxide”. Also, the “Solubility (2) Sparingly soluble” value in data set [4] is given as “H2O, hexane, petroleum ether”.

For the compound `CC1OC(OC2C(O)CC(c3ccc4c(c3O)C(=O)C3=C(C4=O)C4(O)C(=O)CC(C)(O)CC4(O)C=C3)OC2C)C=CC1=O` (centres unmarked) [MH190 Y1-1, Saquayamycin A1], the IC50 in data set [1] (P388/S) came to 0.175 µg/mL (≈ 0.293 µM); in data set [2] (P388/ADR) it was 0.09 µg/mL (≈ 0.151 µM). For the same compound, the “Ratio (P388/ADR to P388/S)” value in data set [2] came out at 0.51. In data set [3], the Stability entry is “instable against light, acid and alkali changed to MH190 Y2 on silica gel”. For the same compound, in data set [4], the “Solubility (1) Soluble” value is reported as “CHCl3, ethyl acetate, butyl acetate, methanol, acetonitrile, acetone, dimethyl sulfoxide”. The “Solubility (2) Sparingly soluble” value in data set [4] is “H2O, hexane, petroleum ether”.

For the compound `CC1OC(OC2CCC(OC3(C)CC(=O)C4(O)C5=C(C=CC4(O)C3)C(=O)c3c(ccc(C4CC6OC7CC(=O)C(C)OC7OC6C(C)O4)c3O)C5=O)OC2C)C=CC1=O` (centres unmarked) [MH190 Y2, Saquayamycin B], the IC50 stood at 0.08 µg/mL (≈ 0.0975 µM) in data set [1] (P388/S) and 0.067 µg/mL (≈ 0.0816 µM) in data set [2] (P388/ADR). Also, the “Ratio (P388/ADR to P388/S)” value in data set [2] amounted to 0.84. Besides, the Percentage life prolongation worked out at 102 in the data set on L1210 leukemia cells (dose 0.156 mg/Kg/dat); 127 in the data set on L1210 leukemia cells (dose 0.313 mg/Kg/dat); 120 in the data set on L1210 leukemia cells (dose 0.625 mg/Kg/dat); 127 in the data set on L1210 leukemia cells (dose 1.25 mg/Kg/dat); 151 in the data set with L1210 leukemia cells (dose 2.5 mg/Kg/dat); 175 in the data set with L1210 leukemia cells (dose 5 mg/Kg/dat). Also, the anti-tumor activities entry in the data set on L1210 leukemia cells (doses ranging from 0.313 to 5 mg/kg/day) is recorded as “appreciable anti-tumor activities”. In addition, the LD50 (commonly the dose expected to kill half of the subjects tested) in data set [5] is 6.25 to 12.5 mg/kg. The Stability result in data set [3] is “instable against light, acid and alkali”. Further, the “Solubility (1) Soluble” value in data set [4] is “CHCl3, ethyl acetate, butyl acetate, methanol, acetonitrile, acetone, dimethyl sulfoxide”. Moreover, the “Solubility (2) Sparingly soluble” value in data set [4] is on record as “H2O, hexane, petroleum ether”.

For the compound `CC1OC2OC3C(C)OC(c4ccc5c(c4O)C(=O)C4=C(C5=O)C5(O)C(=O)CC(C)(O)CC5(O)C=C4)CC3OC2CC1=O` (centres unmarked) [MH190 Y2-1, Saquayamycin B1], the IC50 in data set [1] (P388/S) worked out at 0.13 µg/mL (≈ 0.218 µM); in data set [2] (P388/ADR) it was 0.074 µg/mL (≈ 0.124 µM). Further, the “Ratio (P388/ADR to P388/S)” value in data set [2] is on record as 0.57. Also, the Stability result in data set [3] was “instable against light, acid and alkali”. Besides, in data set [4], the “Solubility (1) Soluble” value was “CHCl3, ethyl acetate, butyl acetate, methanol, acetonitrile, acetone, dimethyl sulfoxide”. Besides, the “Solubility (2) Sparingly soluble” value in data set [4] was “H2O, hexane, petroleum ether”.

As to `CC1OC(OC2CCC(OC3(C)CC(=O)C4(O)C5=C(C=CC4(O)C3)C(=O)c3c(ccc(C4CC(O)C(OC6CCC(=O)C(C)O6)C(C)O4)c3O)C5=O)OC2C)CCC1=O` (centres unmarked) [MH190 Y3, Saquayamycin C], the IC50 in data set [1] (P388/S) amounted to 0.072 µg/mL (≈ 0.0873 µM). Besides, the IC50 in data set [2] (P388/ADR) turned out to be 0.06 µg/mL (≈ 0.0727 µM). Moreover, the “Ratio (P388/ADR to P388/S)” value in data set [2] was found to be 0.83. In data set [3], the Stability entry is “instable against light, acid and alkali”. For the same compound, in data set [4], the “Solubility (1) Soluble” value is reported as “CHCl3, ethyl acetate, butyl acetate, methanol, acetonitrile, acetone, dimethyl sulfoxide” and the “Solubility (2) Sparingly soluble” value is “H2O, hexane, petroleum ether”.

Regarding `CC1OC(OC2C(O)CC(c3ccc4c(c3O)C(=O)C3=C(C4=O)C4(O)C(=O)CC(C)(O)CC4(O)C=C3)OC2C)CCC1=O` (centres unmarked) [MH190 Y3-1, Saquayamycin C1], in data set [3], the Stability entry was “instable against light, acid and alkali”. In data set [4], the “Solubility (1) Soluble” value is “CHCl3, ethyl acetate, butyl acetate, methanol, acetonitrile acetone, dimethyl sulfoxide” and the “Solubility (2) Sparingly soluble” value is “H2O, hexane, petroleum ether”.

Turning to `CC1OC(OC2CCC(OC3(C)CC(=O)C4(O)C5=C(C=CC4(O)C3)C(=O)c3c(ccc(C4CC6OC7CC(=O)C(C)OC7OC6C(C)O4)c3O)C5=O)OC2C)CCC1=O` (centres unmarked) [MH190 Y4, Saquayamycin D], the IC50 in data set [1] (P388/S) was determined as 0.07 µg/mL (≈ 0.0851 µM). Further, in data set [2] (P388/ADR), the IC50 is 0.06 µg/mL (≈ 0.0729 µM). Moreover, the “Ratio (P388/ADR to P388/S)” value in data set [2] came to 0.86. For the same compound, the Stability entry in data set [3] was “instable against light, acid and alkali”. In data set [4], the “Solubility (1) Soluble” value is on record as “CHCl3, ethyl acetate, butyl acetate, methanol, acetonitrile, acetone, dimethyl sulfoxide” and the “Solubility (2) Sparingly soluble” value is recorded as “H2O, hexane, petroleum ether”.
